Earlier results, collected in patent US20120149888A1, “SYNTHESIS OF ARA-2'-O-METHYL-NUCLEOSIDES, CORRESPONDING PHOSPHORAMIDITES AND OLIGONUCLEOTIDES INCORPORATING NOVEL MODIFICATIONS FOR BIOLOGICAL APPLICATION IN THERAPEUCTICS, DIAGNOSTICS, G- TETRAD FORMING OLIGONUCLEOTIDES AND APTAMERS” (priority 2009, published 2012).
“Also recorded” adds a separate entry of the source. Like-named read-outs stand apart in the source and are kept apart here.

Columns and labels:
[1] = test system: L1210/MP(III)
[2] = test system: Ehrlich ascites resistant to 5-fluorodeoxyuridine (FUdR); conditions: 5-Fluorodeoxyuridine-resistant Ehrlich ascites
[3] = test system: L1210/ara-C
[4] = test system: ara-C-resistant neoplasms
[5] = test system: mouse leukemia L1210; conditions: L1210 cells
[6] = test system: 11 human tumor xenografts; conditions: 11 xenografts
[7] = test system: 36 human tumor cell lines
[8] = test system: human nasopharyngeal KB cells
[9] = test system: L1210 TG/R
[10] = test system: P815-E176
[11] = test system: L5178Y/ara-C
[12] = test system: L1210 cells
[13] = test system: ovarian cancer; conditions: previously treated patients
[14] = rhesus monkey, in vivo
[15] = test system: L1210/CA; conditions: 1β-D-Arabinofuranosylcytosine-resistant L1210/CA
[16] = test system: equilibrative NBMPR-sensitive nucleoside transporter (es); conditions: growth-inhibitory concentrations
[17] = test system: P815/FU; conditions: 5-Fluorouracil-resistant P815/FU
[18] = test system: explants of intact rat colonic mucosa
[19] = target: nucleoside transport (thymidine uptake); conditions: for Ki: read-out: Ki value for inhibition of thymidine uptake
[20] = test system: Ehrlich ascites (AZU 1); conditions: 6-Azauracil-resistant Ehrlich ascites (AZU 1)
[21] = test system: Ehrlich ascites (EAC-R2); conditions: 6-Methyl thiopurine ribonucleoside-resistant Ehrlich ascites (EAC-R2)
[22] = in vivo
[23] = 6-Mercaptopurine-resistant L1210/MP(III)
[24] = 5-Fluorouracil-resistant P815-E176
[25] = Thioguanine-resistant L1210 TG/R

Nc1nc(N)c2c(Cl)c(CNc3ccc(C(=O)N[C@@H](CC(=O)O)C(=O)O)cc3)ccc2n1 [Chlorasquin]
Response to chemotherapeutic drugs: collaterally sensitive ([1]; mouse, in vivo): Chlorasquin

O=c1[nH]c(=O)n([C@H]2C[C@H](O)[C@@H](CO)O2)cc1C(F)(F)F [Compound F3TdR, 5-trifluoromethyl-2′-deoxyuridine]
Response to chemotherapeutic drugs: Cross-resistant [2]: cross-resistant; also recorded: F3TdR

Nc1n[nH]c(N)n1 [Guanazole]
Response to chemotherapeutic drugs: Same as parent line ([3]; in vivo): Guanazole TSC
cross-resistance of ara-C-resistant neoplasms to the drug ([4]; in vivo): no cross-resistance

C#C[C@@]1(O)[C@@H](CO)O[C@@H](n2ccc(=O)[nH]c2=O)[C@@H]1O [EUrd, 1-(3-C-ethynyl-beta-D-ribo-pentofuranosyl)uracil]
IC50 [5]: 130 nM
human tumors with potent inhibition [6]: 8 of 11
1050 values [7]: nanomolar to micromolar range
IC50 [8]: 29 nM

O=P1(N(CCCl)CCCl)NCCCO1 (stereo not shown) [Cytoxan]
Response to chemotherapeutic drugs: Same as parent line ([9]; mouse, in vivo): no change in response; also recorded: Cytoxan
Response to chemotherapeutic drugs: Same as parent line ([10]; in vivo): no change in response; also recorded: Cytoxan
Response to chemotherapeutic drugs: Same as parent line ([11]; in vivo): Cytoxan

COCC(COc1nc(N2CCCCC2)c2nc(OCC(COC)OC)nc(N3CCCCC3)c2n1)OC (stereo not shown) [NU3059]
growth inhibitory activity of the TS inhibitor CB3717 ([12]; analogue 10 microM): enhance

Cc1c(CNc2ccc(C(=O)N[C@@H](CC(=O)O)C(=O)O)cc2)ccc2ncnc(N)c12 [Methasquin]
Response to chemotherapeutic drugs: collaterally sensitive [1, 23]: Methasquin

gemcitabine-cisplatin
response, doublets [13]: 53%

Nc1ncn([C@@H]2O[C@H](CO)[C@@H](O)[C@@H]2O)c(=O)n1 [AAC, Arabinosyl-5-azacytosine]
CSF clearance exceeds the rate of CSF bulk flow [14]: 5 fold
greater CSF drug exposure, intrathecal or intraventricular versus systemic [14]: 50 fold
area under the CSF concentration x time curve, intraventricular 10 mg versus intravenous 200 mg/kg ([14]; 200 mg/kg): fifty fold
peak CSF concentration, intraventricular 10 mg versus intravenous 200 mg/kg ([14]; 200 mg/kg): one hundred
CSF clearance ([14]; icv or intrathecal, 10 mg): 0.2 mL/min

CN(Cc1cnc2nc(N)[nH]c(=O)c2n1)c1c(Cl)cc(C(=O)NC(CCC(=O)O)C(=O)O)cc1Cl (stereo not shown) [DCM, 3′,5′-dichloromethopterin]
Response to chemotherapeutic drugs: Same as parent line [15]: DCM

C[C@@]1(CO)[C@H](O)CC[C@@]2(C)[C@H]1CC[C@H]1C[C@@H]3C[C@@]12CC[C@]3(O)CO [aphidicolin]
expression of es [16]: no significant increase

Nc1nc2nc[nH]c2c(=S)[nH]1 [Thioguanine]
Response to chemotherapeutic drugs: Same as parent line [10, 24]: Thioguanine

Nc1nc(=O)n([C@@H]2O[C@H](CO)[C@@H](O)[C@@H]2O)cc1F [Ara-FC, 1β-D-arabinofuranosyl-5-fluorocytosine]
Response to chemotherapeutic drugs: Same as parent line [17]: Ara-FC
Response to chemotherapeutic drugs: Same as parent line ([17]; listed as ara-FC): retained the same sensitivity

OCCN(CCO)c1nc(N2CCCCC2)c2nc(N(CCO)CCO)nc(N3CCCCC3)c2n1 [dipyridamole]
incorporation of tritiated TdR into DNA [18]: reduced
reduction of the LC90 of nolatrexed ([12]; absence of salvageable thymidine): > threefold
Ki [19]: 280 nM

N[C@@H](Cc1ccc(N(CCCl)CCCl)cc1)C(=O)O [L-PAM, L-phenylalanine mustard methanol]
Response to chemotherapeutic drugs: collaterally sensitive ([9]; mouse, in vivo): L-PAM
Response to chemotherapeutic drugs: collaterally sensitive ([10]; in vivo): L-PAM

S=P(N1CC1)(N1CC1)N1CC1 [Thio-TEPA, triethylenethiophosphoramide]
Response to chemotherapeutic drugs: collaterally sensitive ([9]; mouse, in vivo): Thio-TEPA
Response to chemotherapeutic drugs: Cross-resistant ([10]; in vivo): cross-resistance; also recorded: Thio-TEPA

COC(COC(N)=O)C1=C(N2CC2)C(=O)C(C)=C(N2CC2)C1=O (stereo not shown) [Carbazilquinone]
Response to chemotherapeutic drugs: collaterally sensitive ([1]; mouse, in vivo): collateral sensitivity; also recorded: Carbazilquinone
cross-resistance of ara-C-resistant neoplasms to the drug ([4]; in vivo): no cross-resistance
Response to chemotherapeutic drugs: Same as parent line ([11]; in vivo): Carbazilquinone

CCOC(=O)NO [Hydroxycarbamic Acid ethyl ester]
Response to chemotherapeutic drugs: Same as parent line [15]: Hydroxycarbamic

Neocarzinostatin
Response to chemotherapeutic drugs: collaterally sensitive ([1]; mouse, in vivo): collateral sensitivity; also recorded: Neocarzinostatin

CN(Cc1cnc2nc(N)nc(N)c2n1)c1ccc(C(=O)N[C@@H](CCC(=O)O)C(=O)O)cc1 [Methotrexate]
Response to chemotherapeutic drugs: collaterally sensitive [1, 23]: collaterally sensitive
Response to chemotherapeutic drugs: Same as parent line [9, 25]: Methotrexate
Response to chemotherapeutic drugs: Same as parent line ([9]; Thioguanine-resistant L1210 TG/R, listed as methotrexate): not altered
Response to chemotherapeutic drugs: Same as parent line [10, 24]: Methotrexate
Response to chemotherapeutic drugs: Same as parent line ([11]; L5178Y/ara-C): Methotrexate

COc1ccc(CNc2nc(N(CCO)CCO)nc3c(NCc4ccc(OC)cc4)nc(N(CCO)CCO)nc23)cc1 [NU3076]
FU cytotoxicity [12]: significant potentiation
reduction of the LC90 of nolatrexed [12]: > threefold
inhibition of thymidine uptake in the presence of AGP ([19]; AGP 5 mg ml(−1)): not significantly affected
Ki [19]: 100 nM

NC(=S)NN=Cc1ccccn1 [TSC, pyridine-2-carboxaldehyde thiosemicarbazone]
Response to chemotherapeutic drugs: Same as parent line ([3]; L1210/ara-C (Schabel et al., 1971)): Guanazole TSC
cross-resistance of ara-C-resistant neoplasms to the drug ([4]; several other ara-C-resistant neoplasms): no cross-resistance

CO[C@@]12[C@H](COC(N)=O)C3=C(C(=O)C(C)=C(N)C3=O)N1C[C@@H]1N[C@@H]12 [mitomycin C]
Response to chemotherapeutic drugs: collaterally sensitive ([1]; mouse, in vivo): collaterally sensitive

Cc1cn([C@H]2C[C@H](O)[C@@H](CO)O2)c(=O)[nH]c1=O [TdR, Thymidine]
expression of es [16]: no significant effect

O=NN(CCCl)C(=O)NCCCl [BCNU, 1,3-bis(2-chloroethyl)-1-nitrosourea]
Response to chemotherapeutic drugs: Same as parent line [15]: BCNU

O=c1cnn([C@@H]2O[C@H](CO)[C@@H](O)[C@H]2O)c(=O)[nH]1 [Compound 6-Azauridine, 6-Azauridine]
Response to chemotherapeutic drugs: Cross-resistant [20]: 6-Azauridine
Response to chemotherapeutic drugs: Cross-resistant ([20]; listed as 6-azauridine): cross-resistant

O=c1[nH]c(=O)n([C@H]2C[C@H](O)[C@@H](CO)O2)cc1F [Compound 5-FUdR]
incorporation of tritiated TdR into DNA [18]: not altered
levels of tritiated deoxyuridine [18]: reduced

Nc1ncnc2c([C@@H]3O[C@H](CO)[C@@H](O)[C@H]3O)[nH]nc12 [Formycin]
Response to chemotherapeutic drugs: Cross-resistant [21]: Formycin

NC(=O)c1csc([C@@H]2O[C@H](CO)[C@@H](O)[C@H]2O)n1 [tiazofurin, 2-B-D-Ribofuranosylthiazole-4-Carboxamide]
antitumor activity [22]: No antitumor activity was observed
dose limiting toxicities [22]: pericarditis and clinical symptoms suggestive of a more generalized serositis
maximally tolerated dose [22]: 1650 mg/m2
patients with sustained depletion of guanine nucleotide pools [22]: 1 of 6

[N-]=[N+]=CC(=O)OC[C@H](N)C(=O)O [azaserine]
Response to chemotherapeutic drugs: collaterally sensitive [1, 23]: collaterally sensitive
Response to chemotherapeutic drugs: Same as parent line [9, 25]: not altered; also recorded: azaserine
Response to chemotherapeutic drugs: Same as parent line [10, 24]: Azaserine

B1: L-asparaginase: L-asparaginase, enzyme drug (protein, UniProt P00805 23-348, looked up)
L-asparaginase 2: LPNITILATGGTIAGGGDSATKSNYTVGKVGVENLVNAVPQLKDIANVKGEQVVNIGSQDMNDNVWLTLAKKINTDCDKTDGFVITHGTDTMEETAYFLDLTVKCDKPVVMVGAMRPSTSMSADGPFNLYNAVVTAADKASANRGVLVVMNDTVLDGRDVTKTNTTDVATFKSVNYGPLGYIHNGKIDYQRTPARKHTSDTPFDVSKLNELPKVGIVYNYANASDLPAKALVDAGYDGIVSAGVGNGNLYKSVFDTLATAAKTGTAVVRSSRVPTGATTQDAEVDDAKYGFVASGTLNPQKARVLLQLALTQTKDPQQIQQIFNQY
Response to chemotherapeutic drugs: Cross-resistant ([11]; L5178Y/ara-C): L-asparaginase
Response to chemotherapeutic drugs: collaterally sensitive ([11]; L5178Y/ara-C): collaterally sensitive
